Measurements taken from US10314777B2, “Delivery of hydrophobic bioactive agents” (priority 2010, dated 2019).

Experiment: Solubility of the retinoate in the carrier GRANSIL GTS
Format: physicochemical
From the text: In some embodiments, a bioactive agent is a vitamin A derivative such as a retinoid. As an example, some embodiments include hydroxyanasatil retinoate, a form of all-trans retinoate sold by Concert, LLC, Memphis, Tenn., optionally in an amount of 0.1 percent by weight. This material is insoluble at this concentration in the carrier sold under the tradename GRANSIL GTS, which is a mixture of ethyl trisiloxane and polysilicone-11. […] Upon exposure to the environment for application to the skin, the carrier volatilizes allowing the crystalline retinoate to resolubilize in the solvent for increased penetration of the skin.

SMILES: COc1ccc(C(=O)COC(=O)\C=C(C)/C=C/C=C(C)/C=C/C2=C(C)CCCC2(C)C)cc1 [hydroxyanasatil retinoate]
- solubility in carrier GRANSIL GTS (0.1 percent by weight in ethyl trisiloxane and polysilicone-11): insoluble
- state in carrier GRANSIL GTS with non-volatile solvent (0.1 percent by weight, dimethyl isosorbide added at 0.8%): mixed state of solubilized material and crystalline material
